Measurements as given in US9808470B2, “Estrogenic components for use in the treatment of neurological disorders” (UNIVERSITE DE LIEGE, priority 2012, dated 2017).

What was measured:
Assay type in all cases: in vivo
[1] = tested on: intact cells in hippocampus and cortex; assay: Ex.2 neonatal HIE rat model, pre-treatment: hematoxylin-eosin staining and intact cell counting
Procedure: Paraformaldehyde-fixed paraffin embedded samples of the removed brains were coronally sectioned at the same level of the hippocampus region in accordance to the Paxinos rat brain atlas (Paxinos and Watson 2007. In: The rat brain in stereotaxic coordinates, 6th edition). Thickness of sections was 5 μm. Hematoxylin-eosin staining was performed. Briefly, sections were deparaffinized in xylene and rehydrated in graded ethanol concentrations before staining. Slides were stained with hematoxylin, rinsed for a few seconds in water, then placed in 1% eosin and washed, dehydrated, and coverslipped.
Intact cell counting was performed on hematoxylin-eosin-stained sections of the rat pups brains at magnification 400× in 3 fields of the respective brain area. Countings were performed in cortex and hippocampus (regions: dentate gyrus (DG), subgranular zone (SGZ), cornu ammonis (CA1, CA2/CA3)). The sections were analyzed with the aid of a microscope (Olympus BX51, Olympus, Tokyo, Japan), an image scanner (DotSlide Digital Virtual Microscopy, Olympus, Germany) and ImageJ software (NIH, US).
Intact cells are uninjured. Injured cells are characterized by a pale eosinophilic staining along with non-uniform nuclear densities-shrunken, condensed, or pale and enlarged.
After delivery, newborn rat pups were assigned to one of the following 4 groups: Sham group, Vehicle group, E4 5 mg/kg/per day group and E4 50 mg/kg/per day group. From day 4 to day 7 inclusive, rat pups were injected intraperitoneally either vehicle (Vehicle group) or E4 (5 mg/kg or 50 mg/kg in accordance to the group assignment) or not injected at all (Sham group). At day 7, 30 minutes after last injection, animals from Vehicle and E4 (5 mg/kg or 50 mg/kg) groups passed through surgery encompassing left common carotid artery double ligation and cut, followed by hypoxia produced by the inhalation of 11%-8% of oxygen balanced by nitrogen at decreased concentration for 20 minutes, followed by inhalation of 8% oxygen and 92% nitrogen at constant concentration for 35 minutes. The Sham group went through similar procedures without left common carotid artery ligation and hypoxia. All the manipulations were performed at 37° C. Rat pups recovered with their dams until being sacrificed at postnatal day 14.

S100B [2] = assay: Ex.4 therapeutic HIE rat model: blood serum S100B ELISA; conditions: estetrol treated animals (1, 5, 10, 50 mg/kg single ip dose after HI); PND14; vs vehicle
Procedure: (§1) Blood was withdrawn, centrifuged and the serum samples were stored at −80° C.
(§2) ELISAs for detecting the brain damage markers S100B protein (Catalog# CSB-E08066r, Cusabio Biotech Co., LTD, China), and glial fibrillary acidic protein (GFAP) (Catalog# E90068Ra, Uscn Life sciences Inc., China) in blood serum samples were performed according to the manufacturers' recommendations.
To study the therapeutic effect of estetrol, newborn rat pups were assigned to one of the following 6 groups at postnatal day 7: sham group (n=29), vehicle group (n=20), 1 mg/kg E4 group (n=16), 5 mg/kg E4 group (n=19), 10 mg/kg day E4 (n=17) and 50 mg/kg day E4 group (n=15). At postnatal day 7 animals were anesthetized with isoflurane (induction, 3.0%; maintenance, 1.5%), and the rat pups from vehicle and E4 groups passed through surgery encompassing left common carotid artery double ligation and cut. After surgery, the pups were returned to their dams and allowed to recover for 1 hour. The pups were then placed in a humidified hypoxic in vivo cabinet (CoyLab). Hypoxia was produced by the inhalation of 11%-8% of oxygen balanced by nitrogen at decreased concentration of oxygen for 20 minutes, followed by inhalation of 8% oxygen and 92% nitrogen at constant concentration for 35 minutes. All the manipulations were performed at 37° C. […]

S100B [3] = assay: Ex.3 neuroprotective HIE rat model: blood serum S100B ELISA; conditions: PND14
Procedure: as §1, §2
Newborn rat pups were assigned to one of the following 6 groups from postnatal day 4: Sham group (n=24), Vehicle group (n=14), E4 1 mg/kg/per day group (n=11), E4 5 mg/kg/per day group (n=14), E4 10 mg/kg/per day group (n=14), or E4 50 mg/kg/per day group (n=19). From postnatal day 4, rat pups were intraperitoneally injected either vehicle (Vehicle group) or E4 (1, 5, 10, or 50 mg/kg/per day in accordance to the E4 group assignment) or neither vehicle nor E4 (Sham group). At day 7, 30 minutes after last injection, animals were anesthetized with isoflurane (induction, 3.0%; maintenance, 1.5%), and the rat pups from Vehicle and E4 groups passed through surgery encompassing left common carotid artery double ligation and cut. After the procedure, the pups were returned to their dams and were allowed to recover for 1 hour. The pups were then placed in the humidified hypoxic in vivo cabinet (CoyLab, Grass Lake, Mich., USA). […]

SMILES: C[C@]12CC[C@@H]3c4ccc(O)cc4CC[C@H]3[C@@H]1[C@@H](O)[C@@H](O)[C@@H]2O [E4, 1,3,5(10)-estratrien-3,15α,16α,17β-tetrol]
- number of intact cells per visual field ([1]; E4 5 mg/kg ip day 4-7 before HI, DG, vs Vehicle): significantly higher
- number of intact cells per visual field ([1]; E4 5 mg/kg ip day 4-7 before HI, SGZ, vs Sham and Vehicle): significantly higher
- number of intact cells per visual field ([1]; E4 50 mg/kg ip day 4-7 before HI, CA2/CA3, vs Vehicle and E4 5 mg/kg): significantly higher number of intact cells
- number of intact cells per visual field ([1]; E4 50 mg/kg ip day 4-7 before HI, cortex, vs Vehicle): significantly higher number of intact cells
- number of intact cells per visual field ([1]; E4 5 and 50 mg/kg ip day 4-7 before HI, CA1, among study groups): non-significant difference
- Hematoxylin-Eosin staining of hippocampus region ([1]; E4 5 and 50 mg/kg ip day 4-7 before HI, day 14): neuroprotective effect
- expression of S100B protein in blood serum (S100B [2]): significantly lower expression
- concentration of S100B in blood serum (S100B [3]; 10 mg/kg E4 ip PND4-7 before HI, vs sham, 5 mg/kg E4 and 50 mg/kg E4): significantly higher
- concentration of S100B in blood serum (S100B [3]; 50 mg/kg E4 ip PND4-7 before HI): 361 ± 32.914 pg/mL
